Measurements from patent publication US20200331904A1, “3-AMINO-[1,2,4]-TRIAZOLE DERIVATIVES AND THEIR USE FOR CONTROLLING UNDESIRED PLANT GROWTH” (Bayer CropScience Aktiengesellschaft, priority 2017, published 2020).

Assays:
Format in all cases: in vivo
Setaria viridis = assay: Pre-emergence herbicidal efficacy, SETVI; settings: Table B1, application rate 320 g/ha, scored visually after about 3 weeks vs untreated controls
From the text: (§1) C.1 Pre-Emergence Herbicidal Action and Crop Plant Compatibility
(§2) Seeds of monocotyledonous and dicotyledonous weed plants and crop plants are placed in plastic or organic planting pots and covered with soil. The compounds of the invention, formulated in the form of wettable powders (WP) or as emulsion concentrates (EC), are then applied onto the surface of the covering soil as aqueous suspension or emulsion with addition of 0.5% additive at a water application rate of […] (converted). After the treatment, the pots are placed in a greenhouse and kept under good growth conditions for the trial plants. After about 3 weeks, the effect of the preparations is scored visually in comparison with untreated controls as percentages. For example, 100% activity=the plants have died, 0% activity=like control plants.
(§3) ABUTH: Abutilon theophrasti ALOMY: Alopecurus myosuroides AMARE: Amaranthus retroflexus AVEFA: Avena fatua CYPES: Cyperus esculentus ECHCG: Echinochloa crus-galli LOLMU: Lolium multiflorum MATIN: Matricaria inodora PHBPU: Ipomoea purpurea POLCO: Polygonum convolvulus SETVI: Setaria viridis STEME: Stellaria media VERPE: Veronica persica VTOTR: Viola tricolor

Lolium rigidum = assay: Pre-emergence herbicidal efficacy, LOLRI; settings: Table B1, application rate 320 g/ha, scored visually after about 3 weeks vs untreated controls
From the text: C.1 Pre-Emergence Herbicidal Action and Crop Plant Compatibility Seeds of monocotyledonous and dicotyledonous weed plants and crop plants are placed in plastic or organic planting pots and covered with soil. The compounds of the invention, formulated in the form of wettable powders (WP) or as emulsion concentrates (EC), are then applied onto the surface of the covering soil as aqueous suspension or emulsion with addition of 0.5% additive at a water application rate of […] (converted). After the treatment, the pots are placed in a greenhouse and kept under good growth conditions for the trial plants. After about 3 weeks, the effect of the preparations is scored visually in comparison with untreated controls as percentages. For example, 100% activity=the plants have died, 0% activity=like control plants. […] Here, for example, compound Nos. I-214 and I-196, when applied pre-emergence, have very good activity (80% to 100% herbicidal activity) against harmful plants such as Abutilon theophrasti, Amaranthus retroflexus, Echinochloa crus-galli, Lolium rigidum, Matricaria inodora, Polygonum convolvulus, Setaria viridis, Stellaria media, Veronica persica and Viola tricolor at an application rate of 0.32 kg of active substance or less per hectare. At the same time, some of the compounds according to the invention leave Gramineae crops such as barley, wheat, rye, millet/sorghum, corn, rice or sugar cane virtually undamaged when applied pre-emergence, even at high active compound dosages. In addition, some substances are also harmless to dicotyledonous crops such as soya, cotton, oilseed rape or sugar beet.

Abutilon theophrasti = assay: Pre-emergence herbicidal efficacy, ABUTH; settings: Table B1, application rate 320 g/ha, scored visually after about 3 weeks vs untreated controls
From the text: as §1, §2, §3

Amaranthus retroflexus = assay: Pre-emergence herbicidal efficacy, AMARE; settings: scored visually after about 3 weeks vs untreated controls
From the text: as §1, §2, §3

Polygonum convolvulus = assay: Pre-emergence herbicidal efficacy, POLCO; settings: scored visually after about 3 weeks vs untreated controls
From the text: as §1, §2, §3

Veronica persica = assay: Pre-emergence herbicidal efficacy, VERPE; settings: scored visually after about 3 weeks vs untreated controls
From the text: as §1, §2, §3

Matricaria inodora = assay: Pre-emergence herbicidal efficacy, MATIN
From the text: as §1, §2, §3

Stellaria media = assay: Pre-emergence herbicidal efficacy, STEME
From the text: as §1, §2, §3

Viola tricolor = assay: Pre-emergence herbicidal efficacy, VIOTR
From the text: as §1, §2, §3

Echinochloa crus-galli = assay: Pre-emergence herbicidal efficacy, ECHCG; settings: Table B1, application rate 320 g/ha, scored visually after about 3 weeks vs untreated controls
From the text: as §1, §2, §3

[1] = Table B1, application rate 320 g/ha
[2] = Table B1, application rate 320 g/ha, scored visually after about 3 weeks vs untreated controls
[3] = application rate 320 g/ha, scored visually after about 3 weeks
[4] = Table B2, application rate 320 g/ha
[5] = Table B2, application rate 320 g/ha, scored visually after about 3 weeks vs untreated controls

Structure (SMILES) | Herbicidal efficacy against SETVI (Setaria viridis) [%] | Herbicidal efficacy against LOLRI (Lolium rigidum) [%] | Herbicidal efficacy against ABUTH (Abutilon theophrasti) [%] | Herbicidal efficacy against AMARE (Amaranthus retroflexus; [1]) [%] | Herbicidal efficacy against POLCO (Polygonum convolvulus; [1]) [%] | Herbicidal efficacy against VERPE (Veronica persica; [1]) [%] | Herbicidal efficacy against MATIN (Matricaria inodora; [2]) [%] | Herbicidal efficacy against STEME (Stellaria media; [2]) [%] | Herbicidal efficacy against VIOTR (Viola tricolor; [2]) [%] | Herbicidal efficacy against ECHCG (Echinochloa crus-galli) [%] | Herbicidal efficacy against MATIN (Matricaria inodora; [3]) [%] | Herbicidal efficacy against STEME (Stellaria media; [3]) [%] | Herbicidal efficacy against VIOTR (Viola tricolor; [3]) [%] | Herbicidal efficacy against AMARE (Amaranthus retroflexus; [4]) [%] | Herbicidal efficacy against POLCO (Polygonum convolvulus; [4]) [%] | Herbicidal efficacy against VERPE (Veronica persica; [4]) [%] | Herbicidal efficacy against MATIN (Matricaria inodora; [5]) [%] | Herbicidal efficacy against STEME (Stellaria media; [5]) [%] | Herbicidal efficacy against VIOTR (Viola tricolor; [5]) [%]
Cc1ccc2c(c1)C(Nc1nc3n(n1)CCN(C(C)C)C3)C(C)C2 (stereo not drawn) [Example I-152] | 100 | 100 | 100 | 100 | 100 | 100 | 100 | 100 | 100 | 100 |  |  |  |  |  |  |  |  | 
Cc1ccc2c(c1)C(Nc1nc3n(n1)CCN(C(=O)C1CC1)C3)C(C)C2 (stereo not drawn) [Example I-167] | 100 | 100 | 100 | 100 | 100 | 100 | 100 | 100 | 100 | 100 |  |  |  |  |  |  |  |  | 
Cc1ccc2c(c1)C(Nc1nc3n(n1)CCN(C(=O)c1ccc(Cl)cc1)C3)C(C)C2 (stereo not drawn) [Example I-171] | 100 | 100 | 100 | 100 | 100 | 100 | 100 | 100 | 100 | 90 |  |  |  |  |  |  |  |  | 
Cc1ccc2c(c1)[C@H](Nc1nc3n(n1)CCN(C(=O)C1CC1)C3)CC2 [Example I-175] | 100 | 100 | 100 | 100 | 100 | 100 | 100 | 100 | 100 | 100 |  |  |  |  |  |  |  |  | 
Cc1ccc2c(c1)[C@H](Nc1nc3n(n1)CCN(C(=O)C1CC1)C3)CCC2 [Example I-182] | 100 | 100 | 100 | 100 | 100 | 100 | 100 | 100 | 100 | 90 |  |  |  |  |  |  |  |  | 
Cc1ccc2c(c1)[C@H](Nc1nc3n(n1)CCN(S(=O)(=O)C(C)C)C3)[C@@H](C)C2 [Example I-191] | 100 | 100 | 100 | 100 | 100 | 100 | 100 | 100 | 100 | 100 |  |  |  |  |  |  |  |  | 
Cc1ccc2c(c1)[C@H](Nc1nc3n(n1)CCN(S(C)(=O)=O)C3)CC2 [Example I-196] | 100 | 100 | 100 | 100 | 100 | 100 | 100 | 100 | 100 | 100 |  |  |  |  |  |  |  |  | 
CC(=O)N1CCCn2nc(NC3CCCc4ccc(C)cc43)nc21 (stereo not drawn) [Example I-321] |  | 100 | 80 | 100 | 90 | 100 | 100 | 100 | 100 |  | 100 | 100 | 100 |  |  |  |  |  | 
Cc1ccc2c(c1)[C@H](Nc1nc3n(n1)CCCS3)CC2 [Example I-347] | 100 |  | 100 | 100 | 100 | 100 | 100 | 100 | 100 | 100 |  |  |  |  |  |  |  |  | 
CC1CCc2ccccc2C1Nc1nc2n(n1)CCCCS2 (stereo not drawn) [Example I-356] | 100 | 100 |  | 100 | 100 | 100 | 100 | 100 | 100 | 100 |  |  |  |  |  |  |  |  | 
Cc1ccc2c(c1)C(Nc1nc3n(n1)CCC[S+]3[O-])C(C)C2 (stereo not drawn) [Example I-360] | 100 |  | 100 | 100 | 100 | 100 | 100 | 100 | 100 | 90 |  |  |  |  |  |  |  |  | 
CC1CCc2ccccc2C1Nc1nc2n(n1)CCC[S+]2[O-] (stereo not drawn) [Example I-362] |  |  |  |  |  |  |  |  |  |  |  |  |  | 100 | 100 | 100 | 100 | 100 | 100
O=S1(=O)CCCCn2nc(N[C@@H]3CCc4ccccc43)nc21 [Example I-364, N-[(1R)-indan-1-yl]-4,4-dioxo-5,6,7,8-tetrahydro-[1,2,4]triazolo[5,1-b][1,3]thiazepin-2-amine] |  |  |  |  |  |  |  |  |  |  |  |  |  | 100 | 100 | 100 | 100 | 100 | 100
CC1CCc2ccccc2C1Nc1nc2n(n1)CCCC[S+]2[O-] (stereo not drawn) [Example I-373] |  |  |  |  |  |  |  |  |  |  |  |  |  | 100 | 100 | 100 | 100 | 100 | 100
Cc1ccc2c(c1)[C@H](Nc1nc3n(n1)CCCS3(=O)=O)CCO2 [Example I-378] |  |  |  |  |  |  |  |  |  |  |  |  |  | 100 | 100 | 100 | 100 | 100 | 100
Cc1ccc2c(c1)[C@H](Nc1nc3n(n1)CCCCS3(=O)=O)CCO2 [Example I-381] | 100 | 100 | 100 | 100 | 100 | 100 | 100 | 100 | 100 |  |  |  |  |  |  |  |  |  | 
